Source: US20230322771A1, “HETEROCYCLIC GLP-1 AGONISTS” (Gasherbrum Bio, Inc., priority 2020, published 2023)

molecular target: GLP-1 Receptor (Homo sapiens, UniProt P43220); test: GLP-1R agonist cAMP stimulation assay (HEK293/GLP1R/CRE-LUC cells, HTRF cAMP dynamic 2 kit); type: cell-based; details: HEK293/CRE-Luc cell line (HDB) stably expressing GLP-1 Receptor; 30 min incubation at 37° C.; read-out: GLP1R cAMP Stimulation DR: EC50 (nM) [Species: Human, Assay Cell Line: HDB]
Protocol: Activation of GLP-1 receptor is known to stimulate cyclic AMP (cAMP) production in cells which indicates primary coupling to the Gαs subunit of the G protein heterotrimeric complex.
To optimize functional activity directed toward Gαs coupling, a HEK293/CRE-Luc cell line developed by HDB stably expressing the GLP-1 Receptor was used. 200× concentration of compound working solutions were prepared (Agilent Technologies Bravo) with ½ log serial dilution in 384-well Echo LDV plate (Labcyte, Cat #LP-0200). 50 nL/well 200× concentration of compound working solutions were moved to 384-well white low volume plate (Greiner, Cat #784075) using Labcyte ECHO550. 1×10^5 cells/mL HEK293/GLP1R/CRE-LUC(HD Biosciences) cell suspensions prepared with assay buffer[DPBS containing 0.5 mM IBMX(Sigma, Cat #15879) and 0.1% BSA(GENVIEW, Cat #FA016-100 g)], 10 uL cell suspensions were added to each well of previous generated assay plate which already contains 50 nl compound at 200× concentration using ThermoFisher Multidrop Combi(1000 cells/well). Seal the plate and incubate at 37° C. with 5% CO2 for 30 min.
After incubation the cAMP assay signal was generated using cAMP dynamic 2 Kit (Cisbio). 5 μL cAMP-d2 working solution was added to each well, followed with 5 μL Anti-cAMP antibody-cryptate working solution added to each well using ThermoFisher Multidrop Combi. Incubate at room temperature for 1 hour protected from light. Read the fluorescence at 665 and 615 nm with Reader PerkinElmer EnVision.
% Activity=100%×(mean RLU of test sample−mean RLU of vehicle control)/(mean RLU of MAX control−mean RLU of vehicle control))

GLP-1 Receptor, sequence (P43220 24-463): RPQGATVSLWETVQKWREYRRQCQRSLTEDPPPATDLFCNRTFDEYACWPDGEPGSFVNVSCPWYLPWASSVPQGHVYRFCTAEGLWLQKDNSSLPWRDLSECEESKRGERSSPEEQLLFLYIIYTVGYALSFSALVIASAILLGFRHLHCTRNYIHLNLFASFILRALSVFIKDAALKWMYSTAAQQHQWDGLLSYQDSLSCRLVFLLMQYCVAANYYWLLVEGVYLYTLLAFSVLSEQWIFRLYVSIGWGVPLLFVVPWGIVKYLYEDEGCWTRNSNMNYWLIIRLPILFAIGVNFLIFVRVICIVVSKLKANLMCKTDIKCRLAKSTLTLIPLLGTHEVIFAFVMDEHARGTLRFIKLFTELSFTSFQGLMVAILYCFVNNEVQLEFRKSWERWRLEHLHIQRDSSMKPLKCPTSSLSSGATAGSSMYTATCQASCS

EC50 | SMILES
0.17 nM | CCS(=O)(=O)Cc1ccc(-n2ccn(-c3c4c(nn3-c3cc(C)c(F)c(C)c3)CCN(C(=O)c3cc5cc(C6CCOCC6)ccc5n3C3(c5noc(=O)[nH]5)CC3)[C@H]4C)c2=O)cc1 [Compound 112a, (S)-3-(1-(2-(3-(3-(4-((ethylsulfonyl)methyl)phenyl)-2-oxo-2,3-dihydro-1H-imidazol-1-yl)-2-(4-fluoro-3,5-dimethylphenyl)-4-methyl-4,5,6,7-tetrahydro-2H-pyrazolo[4,3-c]pyridine-5-carbonyl)-5-(tetrahydro-2H-pyran-4-yl)-1H-indol-1-yl)cyclopropyl)-1,2,4-oxadiazol-5(4H)-one]
0.7 nM | Cc1cc(-n2nc3c(c2-n2ccn(-c4cccc(N5CCCS5(=O)=O)c4)c2=O)[C@H](C)N(C(=O)c2cc4cc(C5CCOCC5)ccc4n2[C@@]2(c4noc(=O)[nH]4)C[C@@H]2C)CC3)cc(C)c1F [Compound 106a, 3-((1S,2S)-1-(2-((S)-3-(3-(3-(1,1-dioxidoisothiazolidin-2-yl)phenyl)-2-oxo-2,3-dihydro-1H-imidazol-1-yl)-2-(4-fluoro-3,5-dimethylphenyl)-4-methyl-4,5,6,7-tetrahydro-2H-pyrazolo[4,3-c]pyridine-5-carbonyl)-5-(tetrahydro-2H-pyran-4-yl)-1H-indol-1-yl)-2-methylcyclopropyl)-1,2,4-oxadiazol-5(4H)-one]
0.043 nM | Cc1cc(-n2nc3c(c2-n2ccn(-c4ccc(S(=O)(=O)C5CC5)cc4)c2=O)[C@H](C)N(C(=O)c2cc4cc(C5CCOCC5)ccc4n2[C@@]2(c4noc(=O)[nH]4)C[C@@H]2C)CC3)cc(C)c1F [Compound 108a, 3-((1S,2S)-1-(2-((S)-3-(3-(4-(cyclopropylsulfonyl)phenyl)-2-oxo-2,3-dihydro-1H-imidazol-1-yl)-2-(4-fluoro-3,5-dimethylphenyl)-4-methyl-4,5,6,7-tetrahydro-2H-pyrazolo[4,3-c]pyridine-5-carbonyl)-5-(tetrahydro-2H-pyran-4-yl)-1H-indol-1-yl)-2-methylcyclopropyl)-1,2,4-oxadiazol-5(4H)-one]
0.065 nM | CCS(=O)(=O)Cc1ccc(-n2ccn(-c3c4c(nn3-c3cc(C)c(F)c(C)c3)CCN(C(=O)c3cc5cc(C6CCOCC6)ccc5n3[C@@]3(c5noc(=O)[nH]5)C[C@@H]3C)[C@H]4C)c2=O)cc1 [Compound 103a, 3-((1S,2S)-1-(2-((S)-3-(3-(4-((ethylsulfonyl)methyl)phenyl)-2-oxo-2,3-dihydro-1H-imidazol-1-yl)-2-(4-fluoro-3,5-dimethylphenyl)-4-methyl-4,5,6,7-tetrahydro-2H-pyrazolo[4,3-c]pyridine-5-carbonyl)-5-(tetrahydro-2H-pyran-4-yl)-1H-indol-1-yl)-2-methylcyclopropyl)-1,2,4-oxadiazol-5(4H)-one]
0.036 nM | Cc1cc(-n2nc3c(c2-n2ccn(-c4ccc(NS(C)(=O)=O)cc4)c2=O)[C@H](C)N(C(=O)c2cc4cc(C5CCOCC5)ccc4n2[C@@]2(c4noc(=O)[nH]4)C[C@@H]2C)CC3)cc(C)c1F [Compound 105a, N-(4-(3-((S)-2-(4-fluoro-3,5-dimethylphenyl)-4-methyl-5-(1-((1S,2S)-2-methyl-1-(5-oxo-4,5-dihydro-1,2,4-oxadiazol-3-yl)cyclopropyl)-5-(tetrahydro-2H-pyran-4-yl)-1H-indole-2-carbonyl)-4,5,6,7-tetrahydro-2H-pyrazolo[4,3-c]pyridin-3-yl)-2-oxo-2,3-dihydro-1H-imidazol-1-yl)phenyl)methanesulfonamide]
0.18 nM | Cc1cc(-n2nc3c(c2-n2ccn(-c4ccc(N5CCCS5(=O)=O)cc4)c2=O)[C@H](C)N(C(=O)c2cc4cc(C5CCOCC5)ccc4n2[C@@]2(c4noc(=O)[nH]4)C[C@@H]2C)CC3)cc(C)c1F [Compound 107a, 3-((1S,2S)-1-(2-((S)-3-(3-(4-(1,1-dioxidoisothiazolidin-2-yl)phenyl)-2-oxo-2,3-dihydro-1H-imidazol-1-yl)-2-(4-fluoro-3,5-dimethylphenyl)-4-methyl-4,5,6,7-tetrahydro-2H-pyrazolo[4,3-c]pyridine-5-carbonyl)-5-(tetrahydro-2H-pyran-4-yl)-1H-indol-1-yl)-2-methylcyclopropyl)-1,2,4-oxadiazol-5(4H)-one]
0.081 nM | CNS(=O)(=O)c1ccc(-n2ccn(-c3c4c(nn3-c3cc(C)c(F)c(C)c3)CCN(C(=O)c3cc5cc(C6CCOCC6)ccc5n3[C@@]3(c5noc(=O)[nH]5)C[C@@H]3C)[C@H]4C)c2=O)cc1 [Compound 104a, 4-(3-((S)-2-(4-fluoro-3,5-dimethylphenyl)-4-methyl-5-(1-((1S,2S)-2-methyl-1-(5-oxo-4,5-dihydro-1,2,4-oxadiazol-3-yl)cyclopropyl)-5-(tetrahydro-2H-pyran-4-yl)-1H-indole-2-carbonyl)-4,5,6,7-tetrahydro-2H-pyrazolo[4,3-c]pyridin-3-yl)-2-oxo-2,3-dihydro-1H-imidazol-1-yl)-N-methylbenzenesulfonamide]
0.27 nM | Cc1cc(-n2nc3c(c2-n2ccn(-c4cccc(CS(C)(=O)=O)c4)c2=O)[C@H](C)N(C(=O)c2cc4cc(C5CCOCC5)ccc4n2[C@@]2(c4noc(=O)[nH]4)C[C@@H]2C)CC3)cc(C)c1F [Compound 102a, 3-((1S,2S)-1-(2-((S)-2-(4-fluoro-3,5-dimethylphenyl)-4-methyl-3-(3-(3-((methylsulfonyl)methyl)phenyl)-2-oxo-2,3-dihydro-1H-imidazol-1-yl)-4,5,6,7-tetrahydro-2H-pyrazolo[4,3-c]pyridine-5-carbonyl)-5-(tetrahydro-2H-pyran-4-yl)-1H-indol-1-yl)-2-methylcyclopropyl)-1,2,4-oxadiazol-5(4H)-one]
0.05 nM | Cc1cc(-n2nc3c(c2-n2ccn(-c4ccc(CCS(C)(=O)=O)cc4F)c2=O)[C@H](C)N(C(=O)c2cc4cc(C5CCOCC5)ccc4n2[C@@]2(c4noc(=O)[nH]4)C[C@@H]2C)CC3)cc(C)c1F [Compound 110a, 3-((1S,2S)-1-(2-((S)-2-(4-fluoro-3,5-dimethylphenyl)-3-(3-(2-fluoro-4-(2-(methylsulfonyl)ethyl)phenyl)-2-oxo-2,3-dihydro-1H-imidazol-1-yl)-4-methyl-4,5,6,7-tetrahydro-2H-pyrazolo[4,3-c]pyridine-5-carbonyl)-5-(tetrahydro-2H-pyran-4-yl)-1H-indol-1-yl)-2-methylcyclopropyl)-1,2,4-oxadiazol-5(4H)-one]
0.32 nM | CCS(=O)(=O)C(C)c1ccc(-n2ccn(-c3c4c(nn3-c3cc(C)c(F)c(C)c3)CCN(C(=O)c3cc5cc(C6CCOCC6)ccc5n3[C@@]3(c5noc(=O)[nH]5)C[C@@H]3C)[C@H]4C)c2=O)c(F)c1 (stereo partly drawn) [Compound 111a, 3-((1S,2S)-1-(2-((4S)-3-(3-(4-(1-(ethylsulfonyl)ethyl)-2-fluorophenyl)-2-oxo-2,3-dihydro-1H-imidazol-1-yl)-2-(4-fluoro-3,5-dimethylphenyl)-4-methyl-4,5,6,7-tetrahydro-2H-pyrazolo[4,3-c]pyridine-5-carbonyl)-5-(tetrahydro-2H-pyran-4-yl)-1H-indol-1-yl)-2-methylcyclopropyl)-1,2,4-oxadiazol-5(4H)-one]
0.24 nM | Cc1cc(-n2nc3c(c2-n2ccn(-c4cccc(CCS(C)(=O)=O)c4)c2=O)[C@H](C)N(C(=O)c2cc4cc(C5CCOCC5)ccc4n2[C@@]2(c4noc(=O)[nH]4)C[C@@H]2C)CC3)cc(C)c1F [Compound 109a, 3-((1S,2S)-1-(2-((S)-2-(4-fluoro-3,5-dimethylphenyl)-4-methyl-3-(3-(3-(2-(methylsulfonyl)ethyl)phenyl)-2-oxo-2,3-dihydro-1H-imidazol-1-yl)-4,5,6,7-tetrahydro-2H-pyrazolo[4,3-c]pyridine-5-carbonyl)-5-(tetrahydro-2H-pyran-4-yl)-1H-indol-1-yl)-2-methylcyclopropyl)-1,2,4-oxadiazol-5(4H)-one]

same assay, conditions: HEK293/CRE-Luc cell line (HDB) stably expressing GLP-1 Receptor; 30 min incubation at 37° C.; read-out: GLP1R cAMP Stimulation DR: pEC50 (M) [Species: Human, Assay Cell Line: HDB] (converted)

EC50 | SMILES
0.17 nM | Cc1cc(-n2nc3c(c2-n2ccn(-c4ccc(N5CCCS5(=O)=O)cc4)c2=O)[C@H](C)N(C(=O)c2cc4cc(C5CCOCC5)ccc4n2[C@@]2(c4noc(=O)[nH]4)C[C@@H]2C)CC3)cc(C)c1F [Compound 107a, 3-((1S,2S)-1-(2-((S)-3-(3-(4-(1,1-dioxidoisothiazolidin-2-yl)phenyl)-2-oxo-2,3-dihydro-1H-imidazol-1-yl)-2-(4-fluoro-3,5-dimethylphenyl)-4-methyl-4,5,6,7-tetrahydro-2H-pyrazolo[4,3-c]pyridine-5-carbonyl)-5-(tetrahydro-2H-pyran-4-yl)-1H-indol-1-yl)-2-methylcyclopropyl)-1,2,4-oxadiazol-5(4H)-one]
0.0316 nM | Cc1cc(-n2nc3c(c2-n2ccn(-c4ccc(CS(C)(=O)=O)cc4)c2=O)[C@H](C)N(C(=O)c2cc4cc(C5CCOCC5)ccc4n2[C@@]2(c4noc(=O)[nH]4)C[C@@H]2C)CC3)cc(C)c1F [Compound 101a, 3-((1S,2S)-1-(2-((S)-2-(4-fluoro-3,5-dimethylphenyl)-4-methyl-3-(3-(4-((methylsulfonyl)methyl)phenyl)-2-oxo-2,3-dihydro-1H-imidazol-1-yl)-4,5,6,7-tetrahydro-2H-pyrazolo[4,3-c]pyridine-5-carbonyl)-5-(tetrahydro-2H-pyran-4-yl)-1H-indol-1-yl)-2-methylcyclopropyl)-1,2,4-oxadiazol-5(4H)-one]
